PubChem BioAssay AID179 (DTP/NCI, 2004)
The source made the active and inactive calls.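 Rule for the calls: active = compounds giving half or more protection of infected cells from virus-caused growth loss, again on retest; inactive = the rest.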

System: CEM cells HIV-1 protection, formazan growth assay
Assay: NCI AIDS Antiviral Assay
Conditions: for IC50: measured here: growth of uninfected CEM cells
Summary of the method: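 Steps: treat uninfected and HIV-1-infected human CEM cells at five drug levels; quantify growth by soluble formazan; retest any compound reaching 50% protection; classify actives from the retest.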

**Q.** `CC1CN(c2ccc(Cl)cc2)CC(C)OC(=O)O1` (configuration not stated) was tested. Which outcome did it give?
**A.** inactive

**Q.** For `NC1CC=C(COC(=O)C(O)(c2ccccc2)C2CC2)CC1` (configuration not stated), which EC50 is on record?
**A.** > 200 µM

**Q.** And the IC50?
**A.** > 200 µM

**Q.** Which results are given for `CCOC(=O)C1=c2[nH]c(O)c(C(=O)OCC)c2=NC1=O`?
**A.** EC50: > 5.13 µM; IC50: > 5.13 µM

**Q.** Which results are given for `C=CC(=O)NCCSSCCNC(=O)C=C`?
**A.** EC50: > 200 µM; IC50: 115 µM

**Q.** What does the source list for `CN1C2=C(CC3=C1CC(C)(C)CC3=O)C(=O)CC(C)(C)C2`?
**A.** EC50: > 100 µM; IC50: > 100 µM

**Q.** Which EC50 does the source give for `CCN(CC)CCOC(=O)c1ccc(NC(=O)CN(CC)CC)cc1` here?
**A.** > 200 µM

**Q.** And the IC50?
**A.** > 200 µM

**Q.** How did the outcome turn out when `C=CCOCn1ccc(N)nc1=O` was run?
**A.** inactive

**Q.** What does the source list for `CONC(CC(=O)c1ccccc1)c1ccccc1` (configuration not stated)?
**A.** EC50: > 4.07 µM; IC50: > 4.07 µM

**Q.** What does the source list for `Cc1ccnc2nc3[nH]c4ccccc4c3cc12`?
**A.** EC50: > 126 µM; IC50: > 126 µM

**Q.** Which results are given for `CC(C)[Si](OC1=CCCCCC12C(=O)N(C)c1ccccc12)(C(C)C)C(C)C` (configuration not stated)?
**A.** EC50: > 200 µM; IC50: 33.9 µM

**Q.** How did the outcome turn out when `OCCC(Sc1ccccc1)Sc1ccccc1` was run?
**A.** inactive

**Q.** `Cc1cnc2c(c1)C(=O)N(c1ccc(Oc3ccccc3)cc1)S2(=O)=O` was tested. Which EC50 did it give?
**A.** > 200 µM

**Q.** And the IC50?
**A.** > 200 µM

**Q.** `CCCCCCCC(=O)[O-].CCCCCCCC(=O)[O-].N.N.N.N.[Co+3].[O-][Cl+3]([O-])([O-])[O-]` was tested. Which outcome did it give?
**A.** inactive

**Q.** With `CCN1C[C@]2(C)CCC(OC)C34[C@@H]1[C@@]1(OCO[C@@]15C[C@H](OC)[C@@H]1C[C@]3(O)[C@@H]5C1OC(C)=O)[C@@H](OC(C)=O)[C@@H]42` (some centres not stated) as the compound, how does the outcome read?
**A.** inactive

**Q.** For `O=C1c2ccccc2C(=O)N1CCN(CCN1C(=O)c2ccccc2C1=O)Cc1ccccc1`, which outcome is on record?
**A.** inactive

**Q.** For `O=C(c1cc2c(C(F)(F)F)onc2c2ccccc12)C(F)(F)F`, which EC50 is on record?
**A.** > 107 µM

**Q.** What about the IC50 of the same compound?
**A.** 8.32 µM

**Q.** For `COc1ccc(CNc2nc3cc(C(F)(F)F)ccc3nc2C(=O)O)cc1OC`, which EC50 is on record?
**A.** > 200 µM

**Q.** And the IC50?
**A.** 66.1 µM

**Q.** `O=C(Nc1ccccc1Cl)c1cc2cc(N=Nc3ccc(Br)cc3)ccc2oc1=O` was tested. Which outcome did it give?
**A.** inactive

**Q.** Which results are given for `Cc1ccc(S(=O)(=O)OCC2CC[C@]3(C)C4CCC5(C)C(CCC5[C@H](C)CCC(=O)O)[C@@H]4CC[C@@H]3C2)cc1` (some centres not stated)?
**A.** EC50: > 4.9 µM; IC50: > 4.9 µM

**Q.** `c1ccc(CC2(c3cc4ccccc4[nH]3)OCCO2)nc1` was tested. Which EC50 did it give?
**A.** > 200 µM

**Q.** What about the IC50 of the same compound?
**A.** 174 µM

**Q.** For `C=C1CN(S(=O)(=O)c2ccc([N+](=O)[O-])cc2)CC(=C)CN(S(=O)(=O)c2ccc([N+](=O)[O-])cc2)C1`, which EC50 is on record?
**A.** > 200 µM

**Q.** What about the IC50 of the same compound?
**A.** > 200 µM

**Q.** Which EC50 does the source give for `CSCCCNC(=O)[C@H](CSC)NC(=O)c1csc(CCNC(=O)[C@@H](NSc2ccccc2[N+](=O)[O-])C(C)O)n1` (some centres not stated) here?
**A.** > 57.5 µM

**Q.** What about the IC50 of the same compound?
**A.** > 57.5 µM
